Data published in article PMC8955197, “Polyketide Derivatives from the Endophytic Fungus Phaeosphaeria sp. LF5 Isolated from Huperzia serrata and Their Acetylcholinesterase Inhibitory Activities” (Journal of Fungi, 2022).

The compounds below were run against AChE (Homo sapiens, UniProt P22303) (assay: biochemical). Conditions: mean ± SD of three parallel measurements; phosphate buffer pH 7.7, 25 °C; read-out: IC50 (µM), acetylcholinesterase inhibitory activity.
Protocol: The assay was carried out in a 96-well microtiter plate reader. […] The mixture was incubated for 5 min at 25 °C. […] Percent inhibition was calculated through the following formula: (control absorbance–sample absorbance)/control absorbance × 100. The IC50 values were the means ± SD of three determinations.

Sequence of AChE (P22303 32-614): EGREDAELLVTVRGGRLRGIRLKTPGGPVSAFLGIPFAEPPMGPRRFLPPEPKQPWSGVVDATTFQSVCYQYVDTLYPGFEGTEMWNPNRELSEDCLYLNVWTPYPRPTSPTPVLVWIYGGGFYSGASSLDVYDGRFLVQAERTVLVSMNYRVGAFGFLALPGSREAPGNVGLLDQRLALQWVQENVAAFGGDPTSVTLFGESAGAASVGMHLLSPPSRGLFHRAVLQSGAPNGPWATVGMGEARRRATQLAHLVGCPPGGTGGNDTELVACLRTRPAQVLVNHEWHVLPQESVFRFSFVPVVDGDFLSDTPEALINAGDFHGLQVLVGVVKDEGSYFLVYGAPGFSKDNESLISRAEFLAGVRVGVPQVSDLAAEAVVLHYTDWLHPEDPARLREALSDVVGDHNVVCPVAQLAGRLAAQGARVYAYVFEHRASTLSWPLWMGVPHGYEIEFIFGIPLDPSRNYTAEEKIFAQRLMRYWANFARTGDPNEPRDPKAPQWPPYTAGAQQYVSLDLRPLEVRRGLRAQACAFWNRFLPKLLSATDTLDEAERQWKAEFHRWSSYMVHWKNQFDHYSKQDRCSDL

Point of comparison: `C[C@@H]1C=C(C[C@@H](O)[C@H](C)O)C(=O)O1` [Compound 4], IC50 6.26 ± 0.15 µM. Against it:
- CC1C=C(CO)C(=O)O1 (centres unmarked) [Compound 1, 3-(hydroxymethyl)-5-methylfuran-2(5H)-one] — higher, > 100 µM
- COC(=O)CC1=CC(C)OC1=O (centres unmarked) [Compound 3, methyl-2-(5-methyl-2-oxo-2,5-dihydrofuran-3-yl)-acetate] — higher, > 100 µM
- CC1C=C(CC(=O)O)C(=O)O1 (centres unmarked) [Compound 2, 2-(5-methyl-2-oxo-2,5-dihydrofuran-3-yl)-acetic acid] — higher, > 100 µM
- CC(O)C(O)c1cc2cc(O)cc(O)c2c(=O)o1 (stereo not drawn) [Compound 9, 6,8-dihydroxy-3-(1′R, 2′R-dihydroxypropyl)-isocoumarin] — higher, > 100 µM
- COc1cc(O)cc2cc(C)oc(=O)c12 [Compound 10, 6-hydroxy-8-methoxy-3-methylisocoumarin] — higher, > 100 µM
- C[C@@H]1Cc2cc(O)cc(O)c2C(=O)O1 [Compound 8, (R)-6-hydroxymellein] — higher, > 100 µM
- CC1=CC(=O)OCC1 [Compound 6, 4-methyl-5,6-dihydropyren-2-one] — higher, > 100 µM
- C/C(=C\C(=O)O)CCO [Compound 5, E-Δ^2-anhydromevalonic acid] — higher, > 100 µM
- C[C@@H](O)Cc1cc2cc(O)cc(O)c2c(=O)o1 [Compound 11, de-O-methyldiaporthin] — 3.4-fold higher, 21.2 ± 1.53 µM
- Cc1cc(C(=O)O)cc(C(C)O)n1 (centres unmarked) [Compound 7, 2-(1-hydroxyethyl)-6-methylisonicotinic acid] — higher, > 100 µM
